Laboratory results: patent US9649313B2, “Use of ITK inhibitors for the treatment of cancer” (The University of North Carolina at Chapel Hill, priority 2012, dated 2017)
Read-outs that look alike come from different tables or passages of the source.

Key:
cytokine production = conditions: anti-CD3 antibody stimulated Balb/c mice; Riether et al., 2009; cited from earlier work
ITK [1] = molecular target: T1, ITK (Homo sapiens, UniProt Q08881); conditions: Riether et al., 2009, cited from earlier work
T1 construct: purchased Carna Biosciences
T1 sequence (Q08881 1-620): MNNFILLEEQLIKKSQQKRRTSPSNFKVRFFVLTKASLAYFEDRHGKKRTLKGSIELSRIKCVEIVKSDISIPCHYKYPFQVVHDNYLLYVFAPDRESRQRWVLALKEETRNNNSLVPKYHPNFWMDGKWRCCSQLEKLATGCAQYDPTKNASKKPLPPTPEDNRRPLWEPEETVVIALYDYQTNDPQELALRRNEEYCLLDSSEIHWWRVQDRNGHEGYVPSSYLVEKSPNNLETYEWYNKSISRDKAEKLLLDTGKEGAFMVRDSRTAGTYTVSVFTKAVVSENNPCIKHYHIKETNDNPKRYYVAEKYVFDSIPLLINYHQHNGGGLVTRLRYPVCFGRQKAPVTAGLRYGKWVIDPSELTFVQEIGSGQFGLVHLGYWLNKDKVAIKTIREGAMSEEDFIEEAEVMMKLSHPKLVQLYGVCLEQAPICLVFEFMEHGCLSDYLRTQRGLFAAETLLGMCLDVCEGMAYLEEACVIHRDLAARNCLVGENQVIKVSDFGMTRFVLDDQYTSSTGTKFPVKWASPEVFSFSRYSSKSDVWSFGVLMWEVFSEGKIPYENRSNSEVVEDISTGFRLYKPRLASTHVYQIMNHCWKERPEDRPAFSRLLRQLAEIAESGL

YES = molecular target: T2, YES (Homo sapiens, UniProt P07947); assay: cell-free kinase assay; format: biochemical; conditions: for IC50: YES
T2 construct: purchased Carna Biosciences
Text: (§1) We investigated the potency and selectivity of BI 10N against 56 kinases using a cell-free assay (Table 8A).
(§2) The selectivity of this inhibitor was investigated by testing the potency of the inhibitor at two concentrations with 53 kinases by Carna Biosciences (MA) (Table 2).

ITK [2] = molecular target: T1, ITK; assay: cell-free kinase assay; format: biochemical
Text: as §1, §2

CK1ε = molecular target: T3, CK1ε (Homo sapiens, UniProt P49674); assay: cell-free kinase assay; format: biochemical; conditions: single inhibitor concentration
T3 construct: purchased Carna Biosciences
Text: as §1, §2

CDK2/CycA2 = molecular target: T4, CDK2/CycA2 (Homo sapiens, UniProt P24941); assay: cell-free kinase assay; format: biochemical; conditions: single inhibitor concentration
T4 construct: purchased Carna Biosciences
Text: as §1, §2

IKKβ = molecular target: T5, IKKβ (Homo sapiens, UniProt O14920); assay: cell-free kinase assay; format: biochemical; conditions: single inhibitor concentration
T5 construct: purchased Carna Biosciences
Text: as §1, §2

EPHA2 = molecular target: T6, EPHA2 (Homo sapiens, UniProt P29317); assay: cell-free kinase assay; format: biochemical; conditions: single inhibitor concentration
T6 construct: purchased Carna Biosciences
Text: as §1, §2

EGFR = molecular target: T7, EGFR (Homo sapiens, UniProt P00533); assay: cell-free kinase assay; format: biochemical; conditions: single inhibitor concentration
T7 construct: purchased Carna Biosciences
Text: as §1, §2

PBK = molecular target: T8, PBK (Homo sapiens, UniProt Q96KB5); assay: cell-free kinase assay; format: biochemical; conditions: single inhibitor concentration
T8 construct: purchased Carna Biosciences
Text: as §1, §2

AKT1 = molecular target: T9, AKT1 (Homo sapiens, UniProt P31749); assay: cell-free kinase assay; format: biochemical; conditions: single inhibitor concentration
T9 construct: purchased Carna Biosciences
Text: as §1, §2

CHK1 = molecular target: T10, CHK1 (Homo sapiens, UniProt O14757); assay: cell-free kinase assay; format: biochemical; conditions: single inhibitor concentration
T10 construct: purchased Carna Biosciences
Text: as §1, §2

SYK = molecular target: T11, SYK (Homo sapiens, UniProt P43405); assay: cell-free kinase assay; format: biochemical; conditions: single inhibitor concentration
T11 construct: purchased Carna Biosciences
Text: as §1, §2

PDGFRα = molecular target: T12, PDGFRα (Homo sapiens, UniProt P16234); assay: cell-free kinase assay; format: biochemical
T12 construct: purchased Carna Biosciences
Text: as §1, §2

IRAK4 = molecular target: T13, IRAK4 (Homo sapiens, UniProt Q9NWZ3); assay: cell-free kinase assay; format: biochemical
T13 construct: purchased Carna Biosciences
Text: as §1, §2

ZAP70 = molecular target: T14, ZAP70 (Homo sapiens, UniProt P43403); assay: cell-free kinase assay; format: biochemical; conditions: ATP concentration at approximately the Km for ATP
T14 construct: purchased Carna Biosciences
Text: as §1, §2

TYRO3 = molecular target: T15, TYRO3 (Homo sapiens, UniProt Q06418); assay: cell-free kinase assay; format: biochemical; conditions: single inhibitor concentration
T15 construct: purchased Carna Biosciences
Text: as §1, §2

p70S6K = molecular target: T16, p70S6K (Homo sapiens, UniProt P23443); assay: cell-free kinase assay; format: biochemical; conditions: single inhibitor concentration
T16 construct: purchased Carna Biosciences
Text: as §1, §2

AurA = molecular target: T17, AurA (Homo sapiens, UniProt O14965); assay: cell-free kinase assay; format: biochemical; conditions: single inhibitor concentration
T17 construct: purchased Carna Biosciences
Text: as §1, §2

LYNa = molecular target: T18, LYNa (Homo sapiens, UniProt P07948); assay: cell-free kinase assay; format: biochemical; conditions: ATP concentration at approximately the Km for ATP
T18 construct: purchased Carna Biosciences
Text: as §1, §2

AMPKα1/β1/γ1 = molecular target: T19, AMPKα1/β1/γ1 (Homo sapiens, UniProt Q13131); assay: cell-free kinase assay; format: biochemical; conditions: single inhibitor concentration
T19 construct: purchased Carna Biosciences
Text: as §1, §2

p38α = molecular target: T20, p38α (Homo sapiens, UniProt Q16539); assay: cell-free kinase assay; format: biochemical; conditions: single inhibitor concentration
T20 construct: purchased Carna Biosciences
Text: as §1, §2

[3] = system: ERK and AKT activation status in VMM 39 cells; assay: western blot of ERK and AKT activation; format: cell-based, Human; conditions: concentrations as high as 50 nM, 3 days
Procedure: (§3) FIG. 9. Western blots of phospho-ERK and phospho-AKT.
(§4) To investigate the impact of ITK inhibition by BI 10N on the ERK and AKT signaling pathways, which are frequently misregulated in melanoma, the ITKHI melanoma cell lines (VMM 39 and RPMI 8322) were grown in the presence of increasing BI 10N concentrations. Western blot analysis was performed on whole cell lysates from these cells using antibodies against ERK, pERK^Thr202/Tyr204, AKT, and pAKT^Ser473.

[4] = system: ERK and AKT activation status in RPMI 8322 cells; assay: western blot of ERK and AKT activation; format: cell-based, Human; conditions: concentrations as high as 50 nM, 3 days
Procedure: as §3, §4

56 protein kinases = assay: cell-free kinase selectivity panel; format: biochemical; conditions: versus 51 of the 56 protein kinases tested
Text: To assess the effect of pharmacologic inhibition of ITK activity in melanoma preclinical models, we used BI 10N, which has been previously shown to inhibit ITK's phosphoryl-transfer activities (Kashem et al., 2007; Riether et al., 2009). We investigated the potency and selectivity of BI 10N against 56 kinases using a cell-free assay (Table 8A).

T2 sequence (P07947 whole entry): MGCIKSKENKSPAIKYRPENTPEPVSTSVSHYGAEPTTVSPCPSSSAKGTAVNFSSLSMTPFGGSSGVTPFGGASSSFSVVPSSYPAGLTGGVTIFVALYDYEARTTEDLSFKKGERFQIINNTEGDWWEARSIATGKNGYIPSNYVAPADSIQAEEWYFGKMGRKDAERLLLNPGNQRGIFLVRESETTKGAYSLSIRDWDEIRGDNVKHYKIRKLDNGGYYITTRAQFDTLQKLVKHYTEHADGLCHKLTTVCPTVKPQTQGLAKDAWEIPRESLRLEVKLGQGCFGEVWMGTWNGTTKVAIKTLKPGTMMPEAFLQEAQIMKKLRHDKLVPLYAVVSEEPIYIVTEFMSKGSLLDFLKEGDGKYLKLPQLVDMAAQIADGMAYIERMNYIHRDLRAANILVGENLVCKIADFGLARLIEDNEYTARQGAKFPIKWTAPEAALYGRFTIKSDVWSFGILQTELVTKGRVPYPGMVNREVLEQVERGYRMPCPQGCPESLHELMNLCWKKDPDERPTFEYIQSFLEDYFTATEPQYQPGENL
T12 sequence (P16234 24-1089): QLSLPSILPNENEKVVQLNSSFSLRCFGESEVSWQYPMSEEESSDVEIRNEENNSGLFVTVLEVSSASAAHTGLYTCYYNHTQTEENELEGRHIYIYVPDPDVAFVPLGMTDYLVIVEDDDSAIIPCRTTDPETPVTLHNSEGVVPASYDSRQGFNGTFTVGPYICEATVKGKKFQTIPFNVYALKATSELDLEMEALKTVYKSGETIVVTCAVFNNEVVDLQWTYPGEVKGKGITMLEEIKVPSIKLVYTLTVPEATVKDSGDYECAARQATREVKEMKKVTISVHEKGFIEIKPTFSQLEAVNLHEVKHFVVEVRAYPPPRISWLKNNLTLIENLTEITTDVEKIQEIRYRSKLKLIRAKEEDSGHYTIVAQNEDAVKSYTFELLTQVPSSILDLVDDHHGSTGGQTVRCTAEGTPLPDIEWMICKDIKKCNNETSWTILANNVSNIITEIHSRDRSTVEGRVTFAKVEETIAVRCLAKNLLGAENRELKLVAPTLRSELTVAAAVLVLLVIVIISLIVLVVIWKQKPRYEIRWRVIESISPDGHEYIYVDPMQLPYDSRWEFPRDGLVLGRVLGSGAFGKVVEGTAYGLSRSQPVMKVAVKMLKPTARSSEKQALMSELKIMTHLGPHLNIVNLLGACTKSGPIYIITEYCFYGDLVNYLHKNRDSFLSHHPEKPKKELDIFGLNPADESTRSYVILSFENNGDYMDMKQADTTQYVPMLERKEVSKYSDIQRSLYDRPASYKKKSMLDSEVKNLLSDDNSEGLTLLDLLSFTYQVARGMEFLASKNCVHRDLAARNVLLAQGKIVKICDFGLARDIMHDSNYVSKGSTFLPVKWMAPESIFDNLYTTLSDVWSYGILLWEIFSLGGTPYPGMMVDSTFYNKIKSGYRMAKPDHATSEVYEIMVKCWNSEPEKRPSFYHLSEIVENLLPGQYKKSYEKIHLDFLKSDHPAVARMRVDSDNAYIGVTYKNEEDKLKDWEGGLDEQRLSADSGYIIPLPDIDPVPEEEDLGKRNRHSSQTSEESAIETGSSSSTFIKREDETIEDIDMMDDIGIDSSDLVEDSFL
T13 sequence (Q9NWZ3 whole entry): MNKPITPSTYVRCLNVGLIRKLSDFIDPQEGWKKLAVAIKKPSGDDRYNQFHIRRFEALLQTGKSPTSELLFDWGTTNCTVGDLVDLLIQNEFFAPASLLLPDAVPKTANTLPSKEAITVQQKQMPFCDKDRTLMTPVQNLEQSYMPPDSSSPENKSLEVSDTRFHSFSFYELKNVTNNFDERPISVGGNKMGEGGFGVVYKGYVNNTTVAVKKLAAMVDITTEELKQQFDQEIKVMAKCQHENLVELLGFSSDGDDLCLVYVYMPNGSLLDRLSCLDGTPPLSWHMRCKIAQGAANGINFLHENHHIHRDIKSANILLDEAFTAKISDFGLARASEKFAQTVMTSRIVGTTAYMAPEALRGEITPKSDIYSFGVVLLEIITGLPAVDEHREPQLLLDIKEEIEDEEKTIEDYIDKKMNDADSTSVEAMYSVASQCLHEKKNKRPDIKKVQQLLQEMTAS
T15 sequence (Q06418 41-890): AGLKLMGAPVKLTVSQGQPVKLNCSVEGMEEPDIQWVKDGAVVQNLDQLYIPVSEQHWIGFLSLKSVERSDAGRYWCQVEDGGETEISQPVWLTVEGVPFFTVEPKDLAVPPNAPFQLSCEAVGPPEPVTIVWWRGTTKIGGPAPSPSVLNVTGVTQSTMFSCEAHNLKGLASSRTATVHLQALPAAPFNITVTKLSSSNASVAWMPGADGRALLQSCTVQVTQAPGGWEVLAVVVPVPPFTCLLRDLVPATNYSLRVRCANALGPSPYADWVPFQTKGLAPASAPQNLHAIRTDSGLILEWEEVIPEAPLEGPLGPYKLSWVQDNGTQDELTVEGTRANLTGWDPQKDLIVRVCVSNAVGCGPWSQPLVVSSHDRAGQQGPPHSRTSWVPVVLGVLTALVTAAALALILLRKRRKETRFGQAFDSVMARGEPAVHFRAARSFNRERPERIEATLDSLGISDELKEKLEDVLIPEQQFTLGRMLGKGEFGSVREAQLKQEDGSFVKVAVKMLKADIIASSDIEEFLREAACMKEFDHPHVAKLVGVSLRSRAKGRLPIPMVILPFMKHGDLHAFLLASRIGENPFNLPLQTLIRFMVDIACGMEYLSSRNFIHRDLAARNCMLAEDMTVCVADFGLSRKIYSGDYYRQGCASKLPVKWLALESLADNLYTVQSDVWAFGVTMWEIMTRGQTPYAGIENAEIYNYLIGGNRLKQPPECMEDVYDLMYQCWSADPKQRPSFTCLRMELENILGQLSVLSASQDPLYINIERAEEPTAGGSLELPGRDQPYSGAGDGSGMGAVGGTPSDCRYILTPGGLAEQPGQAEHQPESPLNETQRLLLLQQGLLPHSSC
T19 sequence (Q13131 10-559 limits assumed): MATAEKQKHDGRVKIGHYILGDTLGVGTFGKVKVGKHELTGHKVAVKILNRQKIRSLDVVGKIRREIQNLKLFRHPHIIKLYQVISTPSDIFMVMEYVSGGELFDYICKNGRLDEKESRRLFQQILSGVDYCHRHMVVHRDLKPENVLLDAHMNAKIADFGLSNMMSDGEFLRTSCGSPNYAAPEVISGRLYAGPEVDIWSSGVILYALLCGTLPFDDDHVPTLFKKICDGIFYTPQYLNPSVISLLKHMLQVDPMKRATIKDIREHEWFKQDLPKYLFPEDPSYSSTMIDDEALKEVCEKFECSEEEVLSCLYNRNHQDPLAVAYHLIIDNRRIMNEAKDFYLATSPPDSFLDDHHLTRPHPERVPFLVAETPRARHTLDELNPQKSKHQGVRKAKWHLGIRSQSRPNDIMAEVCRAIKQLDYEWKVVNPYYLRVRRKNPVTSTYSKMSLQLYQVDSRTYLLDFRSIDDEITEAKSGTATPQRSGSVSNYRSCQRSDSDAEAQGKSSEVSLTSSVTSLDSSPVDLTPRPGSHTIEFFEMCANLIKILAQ
T19 sequence (Q9Y478 whole entry partner): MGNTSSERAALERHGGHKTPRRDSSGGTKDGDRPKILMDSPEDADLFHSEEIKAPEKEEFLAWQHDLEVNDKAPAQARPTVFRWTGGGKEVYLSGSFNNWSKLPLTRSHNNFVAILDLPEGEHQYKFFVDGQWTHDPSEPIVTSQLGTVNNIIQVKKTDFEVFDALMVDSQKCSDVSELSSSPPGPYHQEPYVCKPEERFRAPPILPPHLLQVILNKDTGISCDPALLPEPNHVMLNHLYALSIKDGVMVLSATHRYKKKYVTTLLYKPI
T19 sequence (P54619 whole entry partner): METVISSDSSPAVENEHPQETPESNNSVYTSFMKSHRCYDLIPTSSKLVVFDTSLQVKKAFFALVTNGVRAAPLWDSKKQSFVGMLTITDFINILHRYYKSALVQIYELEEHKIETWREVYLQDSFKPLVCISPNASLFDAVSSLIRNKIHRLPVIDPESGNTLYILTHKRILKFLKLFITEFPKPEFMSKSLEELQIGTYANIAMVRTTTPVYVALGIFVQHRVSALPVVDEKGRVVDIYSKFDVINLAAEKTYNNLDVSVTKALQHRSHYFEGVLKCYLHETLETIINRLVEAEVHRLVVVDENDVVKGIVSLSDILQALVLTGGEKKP
T17 sequence (O14965 whole entry): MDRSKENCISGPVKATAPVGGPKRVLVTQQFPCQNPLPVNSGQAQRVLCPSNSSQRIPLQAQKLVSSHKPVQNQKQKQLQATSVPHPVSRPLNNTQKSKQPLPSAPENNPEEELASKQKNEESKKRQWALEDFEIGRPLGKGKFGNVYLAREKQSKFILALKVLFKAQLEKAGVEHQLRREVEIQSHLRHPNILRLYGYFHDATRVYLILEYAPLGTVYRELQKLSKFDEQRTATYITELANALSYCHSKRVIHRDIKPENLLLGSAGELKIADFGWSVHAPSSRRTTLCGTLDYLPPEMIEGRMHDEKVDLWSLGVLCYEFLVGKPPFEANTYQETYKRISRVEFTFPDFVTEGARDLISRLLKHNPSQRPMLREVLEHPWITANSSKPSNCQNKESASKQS
T18 sequence (P07948 whole entry): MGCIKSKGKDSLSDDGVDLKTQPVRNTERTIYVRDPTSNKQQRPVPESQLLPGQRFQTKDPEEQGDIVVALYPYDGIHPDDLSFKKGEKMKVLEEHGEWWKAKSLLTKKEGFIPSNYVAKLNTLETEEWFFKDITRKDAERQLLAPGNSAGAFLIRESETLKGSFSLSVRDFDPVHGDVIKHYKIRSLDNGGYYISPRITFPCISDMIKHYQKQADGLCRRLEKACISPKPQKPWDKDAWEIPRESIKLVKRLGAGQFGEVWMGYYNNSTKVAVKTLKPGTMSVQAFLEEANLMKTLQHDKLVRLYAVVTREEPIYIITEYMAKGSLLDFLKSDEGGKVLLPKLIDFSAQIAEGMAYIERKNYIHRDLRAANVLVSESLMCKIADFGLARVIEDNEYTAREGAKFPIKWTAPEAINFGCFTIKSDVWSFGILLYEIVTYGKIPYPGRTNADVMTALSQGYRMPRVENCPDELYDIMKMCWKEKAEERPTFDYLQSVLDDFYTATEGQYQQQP

For `CC(C)C(C)CNCc1ccc2c(c1)[nH]/c(=N\C(=O)c1ccc(C3=CN=NC3)s1)n2CC(C)(C)O` (stereo not shown) [BI 10N], the “cytokine production in vivo” value (cytokine production) is given as “decrease cytokine production”, the EC50 (ITK [1]; read-out: EC50 (selective inhibitor of ITK)) is given as 1 nM and the IC50 (ITK [1]; read-out: IC50 (inhibit ITK)) is given as 1 nM. The “selectivity for ITK over YES” value (YES) was “about 10 fold”, the IC50 (YES; 1 mM ATP, Km ATP 13 μM) was 5.9 nM and the IC50 (YES; ATP concentration at approximately the Km for ATP) was 0.993 nM. The IC50 (YES; Table 2, by Carna Biosciences) was 0.993 nM, the mode of inhibition (ITK [2]; ITK) was “time-dependent inhibitor” and the IC50 (ITK [2]; ITK, 1 mM ATP, Km ATP 6.1 μM) was 1.43 nM. The IC50 (ITK [2]; ITK, ATP at approximately the Km for ATP, more potent than can be measured) was < 0.5 nM, the IC50 (ITK [2]; ITK, Table 2, by Carna Biosciences) was 0.486 nM and the Km (ITK [2]; ITK, calculated from IC50 at 1 mM ATP, read-out: Calculated Apparent Km for BI 10N Binding) was 0.00865 nM. For the same compound, the inhibition at 0.2 µM (ITK [2]; ITK, single inhibitor concentration) was 107%, the Ki (ITK [2]; tight binding studies, read-out: K (affinity for ITK)) was 0.0086 nM and the inhibition at 0.2 µM (CK1ε) was 76.2%. For the same compound, the inhibition at 0.2 µM (CDK2/CycA2) was 72.3%, the inhibition at 0.2 µM (IKKβ) was -2.4% and the inhibition at 0.2 µM (EPHA2) was 7.8%. For the same compound, the inhibition at 0.2 µM (EGFR) was 8.6%, the inhibition at 0.2 µM (PBK) was 1.7% and the inhibition at 0.2 µM (AKT1) was -2.2%. It also gave an inhibition at 0.2 µM (CHK1) of 60.3%, an inhibition at 0.2 µM (SYK) of 40.6% and an IC50 (PDGFRα; Table 2, by Carna Biosciences) of 10.1 nM. The inhibition at 0.2 µM (PDGFRα; single inhibitor concentration) was 101%, the IC50 (IRAK4; Table 2, by Carna Biosciences) was 3.14 nM and the inhibition at 0.2 µM (IRAK4; single inhibitor concentration) was 105%. For the same compound, the IC50 (ZAP70) was 7090 nM, the inhibition at 0.2 µM (TYRO3) was 35.6% and the inhibition at 0.2 µM (p70S6K) was 7.6%. It also gave an inhibition at 0.2 µM (AurA) of 15.9%, an IC50 (LYNa) of 36.6 nM and an inhibition at 0.2 µM (AMPKα1/β1/γ1) of 15.3%. For the same compound, the inhibition at 0.2 µM (p38α) was -4.1%, the “activation status of ERK and AKT” value [3] was “No significant effects” and the “activation status of ERK and AKT” value [4] was “No significant effects”. For the same compound, the “selectivity for ITK over other protein kinases” value (56 protein kinases) was “at least 1000 fold”.
